Assay results published in US20260053811A1, “METHODS OF TREATING HYPERTENSION IN OBESE SUBJECTS” (Mineralys Therapeutics, Inc., priority 2022, published 2026).

System: hypertensive subjects
Test: Seated automated office blood pressure (AOBP) in randomized, placebo-controlled, dose-ranging study
Format: in vivo, human
Protocol: A randomized, double-blinded, placebo-controlled, dose-ranging, multicenter study was conducted to evaluate the effect of orally administered Compound A HBr on blood pressure for the treatment of hypertension in male and female subjects ≥18 years of age.
The study consists of two parts. For enrollment into Part 1 of the study, a subject's value of plasma renin activity (PRA) must be ≤1 ng/mL/h based on morning measurement. If the value of PRA >1 ng/mL/h based on morning measurement, then subjects may be eligible to enter Part 2 of the study.
For Part 1, 163 enrolled subjects ≥18 years of age were randomized into 6 equal treatment groups (1:1:1:1:1:1) to 12.5 mg BID, 25 mg BID, 12.5 mg QD, 50 mg QD, 100 mg QD, or placebo. After a review of interim clinical data, the 2 lowest dose levels (12.5 mg QD and 12.5 mg BID) were stopped for future randomization due to a lack of consistent meaningful reduction of blood pressure, but the patients randomized to that point remained in the study through completion. Thus, after the review of interim clinical data, subjects were randomized into 4 equal treatment groups (1:1:1:1) to 25 mg BID, 50 mg QD, 100 mg QD, or placebo.
For Part 2, 36 enrolled subjects ≥18 years of age were randomized (5:1) to either 100 mg QD Compound A HBr or placebo such that the Compound A HBr treatment group consisted of approximately 30 subjects and the placebo treatment group will consist of approximately 6 subjects.
Subjects orally administered the assigned study drug (Compound A HBr or placebo) according to the assigned dosing regimen for 8 weeks beginning on Study Day 1. All subjects in Part 1 (regardless of dosing group) received BID dosing to preserve the integrity of the blind; active drug is administered as the morning dose for all QD dose groups. Subjects returned to the research facility or were seen by the clinical investigator or approved home health care professional at the end of Study Weeks 1, 2, 3, 4, 5, 6, 7, and 8 (±2 days) for protocol-defined efficacy and safety assessments and procedures, assessment of adverse events (AEs), and confirmation of compliance with study drug usage. Subjects also completed a telephone visit and blood pressure (BP) check at home approximately 3 days post last dose of study drug. Subjects attended up to 14 full clinic visits, including a pre-Screening visit, a Screening/start of Placebo Run-in visit, a second visit during Placebo Run-in, a clinic visit to initiate the ABPM procedure, a Randomization visit, 8 weekly visits during double-blind treatment, and an end-of-study visit scheduled 4 weeks after the last study treatment for final efficacy and safety assessments.
An automated oscillometric sphygmomanometer device was used to measure the subjects' systolic and diastolic blood pressure in office after approximately 5 minutes of rest in the seated position.
The primary endpoint is the change in office-measured (mean of last 2 of 5 unattended measurements using an automated oscillometric sphygmomanometer device after approximately 5 minutes of rest in the seated position) systolic blood pressure (SBP) from baseline to the end of Study Week 8.
Secondary endpoints of this study were: • (a) Change in 24-hour ambulatory blood pressure monitoring (ABPM) parameters (systolic and diastolic) from baseline to the end of Study Week 7. • (b) Change in office-measured SBP from baseline to the end of Study Weeks 1, 2, 3, 4, 5, 6, and 7. • (c) Change in office-measured diastolic blood pressure (DBP) from baseline to the end of Study Weeks 1, 2, 3, 4, 5, 6, 7, and 8. • (d) Proportion of subjects who achieve office-measured BP of ≤130/80 mm Hg by the end of Study Week 8.

[1] = Part 2, 100 mg QD, Thiazide Diuretic Use at Baseline Yes
[2] = Part 2, 100 mg QD, subgroup ACEi/ARBs No (n 1)
[3] = Part 2, 100 mg QD, subgroup ACEi/ARBs Yes
[4] = Part 2, 100 mg QD, subgroup AHTs 2
[5] = Part 2, 100 mg QD, subgroup AHTs ≥3
[6] = Part 2, 100 mg QD, subgroup Age 65-79 yr
[7] = Part 2, 100 mg QD, subgroup Age <65 yr
[8] = Part 2, 100 mg QD, subgroup Age ≥80 yr (n 1)
[9] = Part 2, 100 mg QD, subgroup BMI 25-30 kg/m^2
[10] = Part 2, 100 mg QD, subgroup BMI <25 kg/m^2
[11] = Part 2, 100 mg QD, subgroup BMI >30 kg/m^2
[12] = Part 2, 100 mg QD, subgroup PRA 1-5 ng/mL/hr
[13] = Part 2, 100 mg QD, subgroup PRA >5 ng/mL/hr
[14] = Part 2, 100 mg QD, subgroup Race Black or AA
[15] = Part 2, 100 mg QD, subgroup Race Other
[16] = Part 2, 100 mg QD, subgroup Seated SBP Tertile High
[17] = Part 2, 100 mg QD, subgroup Seated SBP Tertile Low
[18] = Part 2, 100 mg QD, subgroup Seated SBP Tertile Middle
[19] = Part 2, 100 mg QD, subgroup Sex Female
[20] = Part 2, 100 mg QD, subgroup Sex Male
[21] = pooled 50 mg QD, 100 mg QD, 12.5 mg BID and 25 mg BID cohorts (N=103)
[22] = pooled 50 mg QD, 100 mg QD, 12.5 mg BID, 25 mg BID cohorts, week 8

Compound: CC(=O)N[C@H]1CC[C@H](NC(=O)CN2CCN(c3nncc(-c4ccc(C)cc4)n3)CC2)CC1 [Compound A HBr]
- Mean Automated Office-Measured Systolic Blood Pressure at Wk 8 [1]: 131.72 mmHg
- Mean Change from Baseline at Week 8 in Automated Office-Measured Systolic Blood Pressure [1]: −10.50 mmHg
- Automated Office-Measured Diastolic Blood Pressure, Wk 8, mean [2]: 87.00 mmHg
- Change from Baseline at Week 8 in Automated Office-Measured Diastolic Blood Pressure, mean [2]: 0.00 mmHg
- Automated Office-Measured Diastolic Blood Pressure, Wk 8, mean [3]: 71.66 mmHg
- Change from Baseline at Week 8 in Automated Office-Measured Diastolic Blood Pressure, mean [3]: −5.88 mmHg
- Automated Office-Measured Diastolic Blood Pressure, Wk 8, mean [4]: 71.58 mmHg
- Change from Baseline at Week 8 in Automated Office-Measured Diastolic Blood Pressure, mean [4]: −6.21 mmHg
- Automated Office-Measured Diastolic Blood Pressure, Wk 8, mean [5]: 73.18 mmHg
- Change from Baseline at Week 8 in Automated Office-Measured Diastolic Blood Pressure, mean [5]: −4.77 mmHg
- Automated Office-Measured Diastolic Blood Pressure, Wk 8, mean [6]: 72.38 mmHg
- Change from Baseline at Week 8 in Automated Office-Measured Diastolic Blood Pressure, mean [6]: −3.83 mmHg
- Automated Office-Measured Diastolic Blood Pressure, Wk 8, mean [7]: 72.50 mmHg
- Change from Baseline at Week 8 in Automated Office-Measured Diastolic Blood Pressure, mean [7]: −10.38 mmHg
- Automated Office-Measured Diastolic Blood Pressure, Wk 8, mean [8]: 65.00 mmHg
- Change from Baseline at Week 8 in Automated Office-Measured Diastolic Blood Pressure, mean [8]: −7.00 mmHg
- Automated Office-Measured Diastolic Blood Pressure, Wk 8, mean [9]: 70.40 mmHg
- Change from Baseline at Week 8 in Automated Office-Measured Diastolic Blood Pressure, mean [9]: −6.10 mmHg
- Automated Office-Measured Diastolic Blood Pressure, Wk 8, mean [10]: 77.00 mmHg
- Change from Baseline at Week 8 in Automated Office-Measured Diastolic Blood Pressure, mean [10]: −1.25 mmHg
- Automated Office-Measured Diastolic Blood Pressure, Wk 8, mean [11]: 73.46 mmHg
- Change from Baseline at Week 8 in Automated Office-Measured Diastolic Blood Pressure, mean [11]: −5.88 mmHg
- Automated Office-Measured Diastolic Blood Pressure, Wk 8, mean [12]: 71.93 mmHg
- Change from Baseline at Week 8 in Automated Office-Measured Diastolic Blood Pressure, mean [12]: −2.14 mmHg
- Automated Office-Measured Diastolic Blood Pressure, Wk 8, mean [13]: 71.29 mmHg
- Change from Baseline at Week 8 in Automated Office-Measured Diastolic Blood Pressure, mean [13]: −11.79 mmHg
- Automated Office-Measured Diastolic Blood Pressure, Wk 8, mean [14]: 72.00 mmHg
- Change from Baseline at Week 8 in Automated Office-Measured Diastolic Blood Pressure, mean [14]: −4.67 mmHg
- Automated Office-Measured Diastolic Blood Pressure, Wk 8, mean [15]: 72.21 mmHg
- Change from Baseline at Week 8 in Automated Office-Measured Diastolic Blood Pressure, mean [15]: −5.94 mmHg
- Automated Office-Measured Diastolic Blood Pressure, Wk 8, mean [16]: 72.09 mmHg
- Change from Baseline at Week 8 in Automated Office-Measured Diastolic Blood Pressure, mean [16]: −4.14 mmHg
- Automated Office-Measured Diastolic Blood Pressure, Wk 8, mean [17]: 72.33 mmHg
- Change from Baseline at Week 8 in Automated Office-Measured Diastolic Blood Pressure, mean [17]: −6.78 mmHg
- Automated Office-Measured Diastolic Blood Pressure, Wk 8, mean [18]: 72.10 mmHg
- Change from Baseline at Week 8 in Automated Office-Measured Diastolic Blood Pressure, mean [18]: −6.40 mmHg
- Automated Office-Measured Diastolic Blood Pressure, Wk 8, mean [19]: 70.75 mmHg
- Change from Baseline at Week 8 in Automated Office-Measured Diastolic Blood Pressure, mean [19]: −6.28 mmHg
- Automated Office-Measured Diastolic Blood Pressure, Wk 8, mean [20]: 75.00 mmHg
- Change from Baseline at Week 8 in Automated Office-Measured Diastolic Blood Pressure, mean [20]: −4.50 mmHg
- Blood pressure reduction by background thiazide diuretic (across dosing cohorts): particularly effective at reducing the blood pressure of individuals who were receiving a thiazide diuretic
- Blood pressure reduction by body mass index (BMI) (across dosing cohorts): particularly effective at reducing the blood pressure of individuals with a body mass index (BMI) of greater than 30
- Subjects with change in BPsys >−15 mmHg [21]: 41%
- Subjects with change in BPsys >−25 mmHg [21]: 25%
- Subjects achieving >−23 mmHg fall in systolic blood pressure [22]: 25%
- Subjects achieving ≥15 mmHg fall in systolic blood pressure [22]: 41%
